From patent US20230391732A1, “MULTI-EFFICACY PYRAZINE COMPOUND, PREPARATION METHOD AND USE THEREOF” (SHENZHEN OLIVE BIOPHARMACEUTICALS CO., LTD, priority 2020, published 2023) come the findings set out here.

The test system of one experiment is SH-SY5Y cells. The experiment is described as follows: MTT assay of SH-SY5Y cell death caused by OGD. Conditions: 4 h OGD, FIG. 1. The class given is cell-based. The protocol:
A neuroprotective effect of tetramethylpyrazine (TMP) and derivatives thereof was evaluated by MTT assay. Cells were incubated, cells in the logarithmic growth phase were collected, a concentration of a cell suspension was adjusted, an MTT-containing medium was added after dosing treatment and 4 h of incubation with OGD, incubation was conducted for 4 h, the medium in the wells was carefully removed, and 150 μl of dimethyl sulfoxide (DMSO) was added to each well, followed by shaking at a low speed for 10 min on a shaker to fully dissolve crystals, and an absorbance value of each well was measured at an OD (absorbance) value of 490 nm of an enzyme-linked immunosorbent assay instrument (at the same time, a zero adjustment well (medium, MTT, DMSO) and a control well (cells, a drug dissolution medium with the same concentration, medium, MTT, DMSO) were set). Data were presented as mean±SEM; n=8 per group.
(In general: Tetrazolium assays rely on reduction of a dye to a coloured formazan, in cell work by metabolically active cells.)

The subject of experiment [1] is SH-SY5Y neuroblastoma cells. The experiment is described as follows: LPS-induced inflammatory factors in differentiated SH-SY5Y cells (ELISA). Format: cell-based. Conditions: 24 h, mean±SEM, n=8; for TNF-alpha: supernatant. Here is the method: (§1) The SH-SY5Y cells were recovered and incubated, and the cells in the logarithmic growth phase were taken. After 24 h of incubation, SH-SY5Y neuroblastoma cells were treated with 1 μM all-trans retinoic acid to induce differentiation, and then inoculated into a 6-well culture dish for 24 h of incubation. Then, 0.2 μM (L) or 1 μM (H) OLB-3 and 1 μg/mL LPS were added to the medium, and treated for 24 h, a supernatant medium was aspirated, and changes of inflammatory factors and oxidative stress-related proteins were measured by an ELISA kit. Data were presented as mean±SEM; n=8 per group.

The subject of experiment [2] is SH-SY5Y neuroblastoma cells. Kind of experiment: LPS-induced oxidative stress-related proteins in differentiated SH-SY5Y cells (ELISA). Format: cell-based. Conditions: 24 h, mean±SEM, n=8. Here is the method:
as §1
Background: ELISA stands for enzyme-linked immunosorbent assay.

The test system of experiment [3] is db/db mice. The experiment is described as follows: Glucose and lipid metabolism in db/db mice, 56 d administration. The class given is in vivo. Conditions: TMP 5.0 mg/kg, OLB-3 13.32 mg/kg, mean±SEM, n=6. The protocol: Mice of a normal control group (WT) and model mice were given normal saline 10 ml/kg/d, Losartan 15 mg/kg/d, TMP (5.0 mg/kg, 0.037 mmol/kg), and OLB-3 (13.32 mg/kg, 0.037 mmol/kg), at a volume of 10 mL/kg, once/d, for continuous administration of 56 d, blood lipids and blood glucose related indexes were measured after blood collection. Data were presented as mean±SEM; n=6 per group.

Experiment [4] relates to db/db mice. The experiment is described as follows: Biochemical and metabolic indicators in db/db mice, 56 d administration. Format: in vivo. Conditions: Losartan 15 mg/kg/d, TMP 5.0 mg/kg, OLB-3 13.32 mg/kg, n=6; for Urine albumin/creatinine: once/d for 56 d, mean, SEM.
Experiment [5] concerns db/db mice. Kind of experiment: Urinary protein level in db/db mice. Conditions: OLB-3 13.32 mg/kg once/d for 56 d, FIG. 2. The class given is in vivo. The protocol:
Mice of a normal control group (WT) and model mice were given normal saline 10 ml/kg/d, Losartan 10 mg/kg/d, TMP (5.0 mg/kg, 0.037 mmol/kg), and OLB-3 (13.32 mg/kg, 0.037 mmol/kg), at a volume of 10 m/kg, once/d, for continuous administration of 56 d, urine protein levels were measured after urine collection. Data were presented as mean±SEM; n=6 per group.

For experiment [6], the system named is 5*FAD mice. Kind of experiment: Novel object recognition in 5*FAD mice. Format: in vivo. Conditions: 6-month-old 5*FAD mice treated 3 months; 2.63 and 13.32 mg/kg; FIG. 3. Here is the method:
(§2) 6-month-old 5*FAD mice were treated with OLB-3 for 3 months, and novel object recognition and Y-maze behavior were measured. Novel object recognition: during a training phase, the mice were exposed in a chamber to become familiar with two identical objects (A+A) for 5 min; during a testing phase, one of the familiar objects was replaced with another novel object (A+B), and the mice were put back in the chamber to detect probe objects for 5 min, while recording video and tracking the mice in real time. Probing was defined as a mouse with its nose pointed towards the object, sniffing or touching with its nose, and a distance of ≤2 cm was recorded from the nose to the object. A discriminant index (DI) is used to explore each object, and a calculation method thereof was as follows: (exploration time for new object−exploration time for old object)/(exploration time for new object+exploration time for old object)*100. Y-maze: an animal was placed at an end of one arm, and the sequence of the animals entering into each arm was recorded within 10 min. […] The 5*FAD mice were treated with low dosage (2.63 mg/kg, 0.007 mmol/kg, the same below) and high dosage (13.32 mg/kg, 0.037 mmol/kg, the same below) of the OLB-3 separately. Data were presented as mean±SEM; n=9-10 per group.

The test system of experiment [7] is 5*FAD mice. Kind of experiment: Y-maze in 5*FAD mice. The class given is in vivo. Conditions: 6-month-old 5*FAD mice treated 3 months; 2.63 and 13.32 mg/kg; FIG. 4. The protocol: as §2
In experiment [8] the test system is 6-OHDA Parkinson's disease rats. The experiment is described as follows: APO-induced rotations in 6-OHDA Parkinson's disease rats. Format: in vivo. Conditions: APO-induced 6-OHDA rats, 2 weeks of treatment; levodopa 25 mg/kg; FIG. 5. From the text:
There was no rotations in a sham-operated group, and there was no significant difference between the groups injected with 6-OHDA, with about 180 rotations. […] Data were presented as mean±SEM; n=10 per group.

Experiment [9] relates to ALS (SOD-G93A) mice. The experiment is described as follows: Pole climbing test in ALS transgenic mice. The class given is in vivo. Conditions: riluzole 5 mg/kg, FIG. 6. From the text:
The pole climbing test is generally used to evaluate a movement coordination ability, movement delay of the limbs in mice, and muscle strength. A homemade wooden pole about 50 cm long and about 1 cm in diameter was wrapped with medical gauze to increase friction of the wooden pole. The wooden pole was put vertically on a horizontal table, the mouse tail was grabbed such that the mouse head was facing down, with limbs grabbing a top of the pole; the timer was started after releasing the mouse tail, and it was ensured that the mouse crawled downward without external force, and the time was recorded for the mouse to climb from the top of the pole to a bottom platform (a standard was that mouse hind limbs were landed on the ground). […] The average value of the mouse's three pole climbing times was calculated as the final pole climbing time. […] Data were presented as mean±SEM; n=10 per group.

Experiment [10] concerns ALS (SOD-G93A) mice. Kind of experiment: Limb grip force test in ALS transgenic mice. Format: in vivo. Conditions: riluzole 5 mg/kg, FIG. 7. Here is the method:
The limb grip force test is used directly to assess muscle strength of mice and the incidence of mice. […] After the start of administration, the grip force of the mice was tested every two weeks, and the measurement was repeated three times for each mouse, and the maximum value among the three results was taken as a maximum grip force of the mice. […] Data were presented as mean±SEM; n=10 per group.

Where [11] appears, read: (H) high concentration (OLB-3 1 μM) + 1 μg/mL LPS.
Where [12] appears, read: (L) low concentration (OLB-3 0.2 μM) + 1 μg/mL LPS.
Setting [13] is: Table 3, once/d for 56 d, Losartan 15 mg/kg/d.
The mark [14] stands for this setting: once/d for 56 d, Losartan 15 mg/kg/d.

As to `Cc1nc(C)c(C(=O)OCOC(=O)OCCc2ccc(O)cc2)nc1C` [OLB-3], the “death of SH-SY5Y cells caused by OGD (MTT)” value with SH-SY5Y cells is on record as “significantly reduce the death of SH-SY5Y cells caused by OGD”. Moreover, in experiment [1] (setting [11]), the TNF-alpha was 4.19 ± 0.77(c) pg/ml, the IL1 was 4.27 ± 0.58(c) pg/ml and the IL6 is 5.13 ± 0.63(c) pg/ml. Moreover, in experiment [1] (setting [12]), the TNF-alpha is reported as 7.34 ± 1.38(c) pg/ml, the IL1 is 8.76 ± 1.56(c) pg/ml and the IL6 was 9.34 ± 1.67(b) pg/ml. In [2] (setting [11]), the GSH-Px is recorded as 17.51 ± 1.17(c) umol/mg, the MDA was 6.71 ± 0.51(c) nmol/mg and the SOD was 18.27 ± 1.02(c) nU/ml. Besides, in experiment [2] (setting [12]), the GSH-Px is reported as 13.21 ± 1.92(c) umol/mg, the MDA is reported as 11.10 ± 0.78(c) nmol/mg and the SOD is recorded as 14.96 ± 1.32(c) nU/ml. In addition, in the experiment with db/db mice [3] (setting [13]), the Creatinine is recorded as 42.42 ± 2.73(c) μmol/L and the Urea is 7.42 ± 0.31(c) mmol/L. Besides, in the experiment with db/db mice [3] (setting [14]), the Total cholesterol is listed as 4.15 ± 0.18(c) mM and the Triglyceride is 9.61 ± 0.57(c) mg/dL. Also, in the experiment with db/db mice [3] (once/d for 56 d), the Glucose determination is listed as 17.26 ± 1.42(c) mM, the Glycated hemoglobin is 517.83 ± 47.26(c) nmol/L, the High-density lipoprotein cholesterol is 1.62 ± 0.11(c) mM and the Low-density lipoprotein cholesterol is on record as 0.52 ± 0.02(c) mM. For the same molecule, in the experiment on db/db mice [4] (Table 4, once/d for 56 d), the Creatinine is listed as 42.42 ± 2.73(c) μmol/L and the Urea is 7.42 ± 0.31(c) mmol/L. Also, the Urine albumin/creatinine in the experiment on db/db mice [4] is given as 443.82 ± 78.34(c) mg/g. In the experiment on db/db mice [5], the urinary protein levels entry is “significantly reduced urinary protein levels”. Further, in the experiment on 5*FAD mice [6], the “time ratio to explore novel objects” value is recorded as “significantly increase a time ratio to explore novel objects”. Moreover, the “time ratio in a novel different arm” value in the experiment on 5*FAD mice [7] was “significantly increase a time ratio in a novel different arm”. The number of rotations entry in experiment [8] is listed as “effectively reduce the number of rotations”. The “pole climbing time / bradykinesia” value with ALS (SOD-G93A) mice [9] was “significantly improve the symptoms of bradykinesia”. For the same molecule, in the experiment with ALS (SOD-G93A) mice [10], the limb grip force entry is on record as “effectively increase the limb force of mice”.

In the case of `CCCCc1nc(Cl)c(CO)n1Cc1ccc(-c2ccccc2-c2nn[nH]n2)cc1` [Losartan, reference compound], the Creatinine is 42.12 ± 1.72(c) μmol/L in the experiment on db/db mice [3] (setting [13]) and 42.12 ± 1.72(c) μmol/L in the experiment on db/db mice [4] (Table 4, once/d for 56 d). Moreover, the Total cholesterol with db/db mice [3] (setting [14]) was 6.76 ± 0.46(c) mM. Further, the Urine albumin/creatinine in the experiment with db/db mice [4] is on record as 582.74 ± 97.82(c) mg/g.

`CN(C)C(=N)N=C(N)N` [metformin, reference compound]: in the experiment on db/db mice [3] (once/d for 56 d), the Glycated hemoglobin is on record as 628.52 ± 50.59(c) nmol/L, the High-density lipoprotein cholesterol is reported as 2.19 ± 0.12(a) mM and the Low-density lipoprotein cholesterol is recorded as 0.59 ± 0.02(c) mM.

In the experiment with db/db mice [4], `Cc1nc(C)c(C)nc1C` [TMP, Tetramethylpyrazine, reference compound] displayed a Urine albumin/creatinine of 661.82 ± 89.54 mg/g.

With `Nc1nc2ccc(OC(F)(F)F)cc2s1` [riluzole, reference compound], the “pole climbing time / bradykinesia” value in the experiment on ALS (SOD-G93A) mice [9] was “significantly improve the symptoms of bradykinesia”. Also, the limb grip force entry with ALS (SOD-G93A) mice [10] was “effectively increase the limb force of mice”.
